#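 Five compound concentrations were applied to cells in 96-well plates for 48 hours; endpoints were derived by simple linear interpolation of the resulting dose-response curve. TGI: concentration producing complete growth inhibition.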
# How the values were obtained:
# Assay in all cases: NCI tumour cell line growth inhibition, 48 h
# HOP-62 NSCLC = tested on: HOP-62 NSCLC
# A549 NSCLC = tested on: A549 NSCLC
# SF-295 CNS = tested on: SF-295 CNS
# DMS 114 small cell lung = tested on: DMS 114 small cell lung
# SK-MEL-5 melanoma = tested on: SK-MEL-5 melanoma
# NCI-H226 lung = tested on: NCI-H226 lung
# NCI-H23 lung = tested on: NCI-H23 lung
# SK-OV-3 ovarian = tested on: SK-OV-3 ovarian
# SF-268 CNS = tested on: SF-268 CNS
# SR leukemia = tested on: SR leukemia
# OVCAR-4 ovarian = tested on: OVCAR-4 ovarian
# ACHN renal = tested on: ACHN renal
# SW-620 colon = tested on: SW-620 colon
# MOLT-4 leukemia = tested on: MOLT-4 leukemia
# U251 CNS = tested on: U251 CNS
# MALME-3M melanoma = tested on: MALME-3M melanoma
# SNB-19 CNS = tested on: SNB-19 CNS
# OVCAR-3 ovarian = tested on: OVCAR-3 ovarian
# NCI-H460 lung = tested on: NCI-H460 lung
# SK-MEL-28 melanoma = tested on: SK-MEL-28 melanoma
# UACC-62 melanoma = tested on: UACC-62 melanoma
# HCT-15 colon = tested on: HCT-15 colon
# KM12 colon = tested on: KM12 colon
# RXF 393 renal = tested on: RXF 393 renal
# TK-10 renal = tested on: TK-10 renal
# LXFL 529 NSCLC = tested on: LXFL 529 NSCLC
# UO-31 renal = tested on: UO-31 renal
# OVCAR-8 ovarian = tested on: OVCAR-8 ovarian
# SN12C renal = tested on: SN12C renal
# SF-539 CNS = tested on: SF-539 CNS
# HL-60(TB) leukemia = tested on: HL-60(TB) leukemia
# SNB-75 CNS = tested on: SNB-75 CNS
# CCRF-CEM leukemia = tested on: CCRF-CEM leukemia
# CAKI-1 renal = tested on: CAKI-1 renal
# IGROV1 ovarian = tested on: IGROV1 ovarian
# HOP-92 NSCLC = tested on: HOP-92 NSCLC
# NCI-H522 lung = tested on: NCI-H522 lung
# K-562 leukemia = tested on: K-562 leukemia
# 786-0 renal = tested on: 786-0 renal
# UACC-257 melanoma = tested on: UACC-257 melanoma
# KM20L2 colon = tested on: KM20L2 colon
# SK-MEL-2 melanoma = tested on: SK-MEL-2 melanoma
# HT29 colon = tested on: HT29 colon
# RXF-631 renal = tested on: RXF-631 renal
# RPMI-8226 leukemia = tested on: RPMI-8226 leukemia
# HOP-18 NSCLC = tested on: HOP-18 NSCLC
# M19-MEL melanoma = tested on: M19-MEL melanoma
# HCT-116 colon = tested on: HCT-116 colon
# EKVX NSCLC = tested on: EKVX NSCLC
# COLO 205 colon = tested on: COLO 205 colon
# M14 melanoma = tested on: M14 melanoma
# DLD-1 colon = tested on: DLD-1 colon
# OVCAR-5 ovarian = tested on: OVCAR-5 ovarian
# DMS 273 small cell lung = tested on: DMS 273 small cell lung
# HCC-2998 colon = tested on: HCC-2998 colon
# LOX IMVI melanoma = tested on: LOX IMVI melanoma
# A498 renal = tested on: A498 renal
# XF 498 CNS = tested on: XF 498 CNS
# SNB-78 CNS = tested on: SNB-78 CNS
compound,measurement,setting,value
CC1=CC(=O)C(C)(C2=NC(C)(C)CO2)c2ccccc21 (stereo unspecified),TGI,HOP-62 NSCLC,> 100 µM
same,TGI,A549 NSCLC,> 100 µM
same,TGI,SF-295 CNS,> 100 µM
same,TGI,DMS 114 small cell lung,> 100 µM
same,TGI,SK-MEL-5 melanoma,> 100 µM
same,TGI,NCI-H226 lung,> 100 µM
same,TGI,NCI-H23 lung,> 100 µM
same,TGI,SK-OV-3 ovarian,> 100 µM
same,TGI,SF-268 CNS,> 100 µM
same,TGI,SR leukemia,> 100 µM
same,TGI,OVCAR-4 ovarian,> 100 µM
same,TGI,ACHN renal,> 100 µM
same,TGI,SW-620 colon,> 100 µM
same,TGI,MOLT-4 leukemia,> 100 µM
same,TGI,U251 CNS,> 100 µM
same,TGI,MALME-3M melanoma,> 100 µM
same,TGI,SNB-19 CNS,> 100 µM
same,TGI,OVCAR-3 ovarian,> 100 µM
same,TGI,NCI-H460 lung,> 100 µM
same,TGI,SK-MEL-28 melanoma,> 100 µM
same,TGI,UACC-62 melanoma,> 100 µM
same,TGI,HCT-15 colon,> 100 µM
same,TGI,KM12 colon,> 100 µM
same,TGI,RXF 393 renal,> 100 µM
same,TGI,TK-10 renal,> 100 µM
same,TGI,LXFL 529 NSCLC,> 100 µM
same,TGI,UO-31 renal,> 100 µM
same,TGI,OVCAR-8 ovarian,> 100 µM
same,TGI,SN12C renal,> 100 µM
same,TGI,SF-539 CNS,> 100 µM
same,TGI,HL-60(TB) leukemia,> 100 µM
same,TGI,SNB-75 CNS,> 100 µM
same,TGI,CCRF-CEM leukemia,> 100 µM
same,TGI,CAKI-1 renal,> 100 µM
same,TGI,IGROV1 ovarian,> 100 µM
same,TGI,HOP-92 NSCLC,> 100 µM
same,TGI,NCI-H522 lung,> 100 µM
same,TGI,K-562 leukemia,> 100 µM
same,TGI,786-0 renal,> 100 µM
same,TGI,UACC-257 melanoma,> 100 µM
same,TGI,KM20L2 colon,> 100 µM
same,TGI,SK-MEL-2 melanoma,> 100 µM
same,TGI,HT29 colon,> 100 µM
same,TGI,RXF-631 renal,> 100 µM
same,TGI,RPMI-8226 leukemia,> 100 µM
same,TGI,HOP-18 NSCLC,> 100 µM
same,TGI,M19-MEL melanoma,> 100 µM
same,TGI,HCT-116 colon,> 100 µM
same,TGI,EKVX NSCLC,> 100 µM
same,TGI,COLO 205 colon,> 100 µM
same,TGI,M14 melanoma,> 100 µM
same,TGI,DLD-1 colon,> 100 µM
C[C@]12CCC3c4ccc(OC(=O)c5ccccc5)cc4CC[C@H]3C1CC[C@@H]2OC(=O)C12OC1CCC2=O (stereo partly specified),TGI,HOP-62 NSCLC,11.9 µM
same,TGI,A549 NSCLC,10.3 µM
same,TGI,SF-295 CNS,28.7 µM
same,TGI,DMS 114 small cell lung,6.7 µM
same,TGI,SK-MEL-5 melanoma,9.49 µM
same,TGI,NCI-H226 lung,34.5 µM
same,TGI,OVCAR-5 ovarian,21.4 µM
same,TGI,NCI-H23 lung,9.76 µM
same,TGI,SK-OV-3 ovarian,33.4 µM
same,TGI,SF-268 CNS,14.6 µM
same,TGI,SR leukemia,13.5 µM
same,TGI,OVCAR-4 ovarian,10.6 µM
same,TGI,ACHN renal,10.4 µM
same,TGI,SW-620 colon,4.86 µM
same,TGI,MOLT-4 leukemia,5.78 µM
same,TGI,DMS 273 small cell lung,9.52 µM
same,TGI,U251 CNS,17.4 µM
same,TGI,MALME-3M melanoma,13.3 µM
same,TGI,SNB-19 CNS,37 µM
same,TGI,HCC-2998 colon,> 71.9 µM
same,TGI,OVCAR-3 ovarian,8.82 µM
same,TGI,NCI-H460 lung,8.3 µM
same,TGI,SK-MEL-28 melanoma,10.7 µM
same,TGI,UACC-62 melanoma,38.4 µM
same,TGI,HCT-15 colon,31.3 µM
same,TGI,KM12 colon,13.6 µM
same,TGI,RXF 393 renal,4.51 µM
same,TGI,LOX IMVI melanoma,8.13 µM
same,TGI,TK-10 renal,33.9 µM
same,TGI,LXFL 529 NSCLC,3.76 µM
same,TGI,UO-31 renal,11.9 µM
same,TGI,OVCAR-8 ovarian,31.3 µM
same,TGI,SN12C renal,11.9 µM
same,TGI,A498 renal,14.2 µM
same,TGI,SF-539 CNS,4.31 µM
same,TGI,HL-60(TB) leukemia,4.56 µM
same,TGI,SNB-75 CNS,19.1 µM
same,TGI,CCRF-CEM leukemia,5.39 µM
same,TGI,IGROV1 ovarian,9.22 µM
same,TGI,HOP-92 NSCLC,35.6 µM
same,TGI,NCI-H522 lung,10.8 µM
same,TGI,K-562 leukemia,5.06 µM
same,TGI,786-0 renal,6.4 µM
same,TGI,UACC-257 melanoma,14.8 µM
same,TGI,XF 498 CNS,11.1 µM
same,TGI,KM20L2 colon,11.9 µM
same,TGI,SK-MEL-2 melanoma,16 µM
same,TGI,HT29 colon,7.55 µM
same,TGI,SNB-78 CNS,14.1 µM
same,TGI,RPMI-8226 leukemia,14.8 µM
same,TGI,HOP-18 NSCLC,10.7 µM
same,TGI,M19-MEL melanoma,11.3 µM
same,TGI,HCT-116 colon,7.18 µM
same,TGI,EKVX NSCLC,15 µM
same,TGI,COLO 205 colon,7.49 µM
same,TGI,M14 melanoma,12 µM
same,TGI,DLD-1 colon,6.37 µM
O=C(O)/C(Cl)=C(\Cl)Nc1cccc(C(F)(F)F)c1,TGI,HOP-62 NSCLC,> 100 µM
same,TGI,A549 NSCLC,> 100 µM
same,TGI,SF-295 CNS,> 100 µM
same,TGI,DMS 114 small cell lung,> 100 µM
same,TGI,NCI-H23 lung,> 100 µM
same,TGI,SK-OV-3 ovarian,> 100 µM
same,TGI,SF-268 CNS,> 100 µM
same,TGI,OVCAR-4 ovarian,> 100 µM
same,TGI,ACHN renal,> 100 µM
same,TGI,SW-620 colon,> 100 µM
same,TGI,DMS 273 small cell lung,> 100 µM
same,TGI,U251 CNS,> 100 µM
same,TGI,MALME-3M melanoma,> 100 µM
same,TGI,HCC-2998 colon,> 100 µM
same,TGI,OVCAR-3 ovarian,> 100 µM
same,TGI,NCI-H460 lung,> 100 µM
same,TGI,SK-MEL-28 melanoma,> 100 µM
same,TGI,UACC-62 melanoma,> 100 µM
same,TGI,HCT-15 colon,> 100 µM
same,TGI,RXF 393 renal,> 100 µM
same,TGI,LOX IMVI melanoma,> 100 µM
same,TGI,TK-10 renal,> 100 µM
same,TGI,LXFL 529 NSCLC,> 100 µM
same,TGI,UO-31 renal,> 100 µM
same,TGI,OVCAR-8 ovarian,> 100 µM
same,TGI,SN12C renal,> 100 µM
same,TGI,HL-60(TB) leukemia,> 100 µM
same,TGI,SNB-75 CNS,> 100 µM
same,TGI,CCRF-CEM leukemia,> 100 µM
same,TGI,CAKI-1 renal,> 100 µM
same,TGI,IGROV1 ovarian,> 100 µM
same,TGI,HOP-92 NSCLC,22.3 µM
same,TGI,K-562 leukemia,> 100 µM
same,TGI,786-0 renal,> 100 µM
same,TGI,XF 498 CNS,> 100 µM
same,TGI,KM20L2 colon,> 100 µM
same,TGI,HT29 colon,> 100 µM
same,TGI,SNB-78 CNS,> 100 µM
same,TGI,HOP-18 NSCLC,> 100 µM
same,TGI,M19-MEL melanoma,> 100 µM
same,TGI,EKVX NSCLC,> 100 µM
same,TGI,COLO 205 colon,> 100 µM
same,TGI,M14 melanoma,33.4 µM
same,TGI,DLD-1 colon,> 100 µM
Cc1nc(NC(=S)NC(=O)c2ccc(Cl)c(Cl)c2)sc1C(=O)/C=C/c1ccccc1[N+](=O)[O-],TGI,HOP-62 NSCLC,47.9 µM
same,TGI,A549 NSCLC,60.3 µM
same,TGI,SF-295 CNS,58.9 µM
same,TGI,NCI-H23 lung,44.9 µM
same,TGI,SK-OV-3 ovarian,49.7 µM
same,TGI,SF-268 CNS,> 100 µM
same,TGI,SR leukemia,63.1 µM
same,TGI,OVCAR-4 ovarian,88.2 µM
same,TGI,ACHN renal,67.4 µM
same,TGI,SW-620 colon,41.2 µM
same,TGI,MOLT-4 leukemia,52.6 µM
same,TGI,DMS 273 small cell lung,48.3 µM
same,TGI,U251 CNS,32.9 µM
same,TGI,MALME-3M melanoma,41.9 µM
same,TGI,SNB-19 CNS,46.9 µM
same,TGI,HCC-2998 colon,> 100 µM
same,TGI,OVCAR-3 ovarian,51.7 µM
same,TGI,NCI-H460 lung,> 100 µM
same,TGI,SK-MEL-28 melanoma,78.4 µM
same,TGI,UACC-62 melanoma,28.5 µM
same,TGI,HCT-15 colon,51 µM
same,TGI,KM12 colon,39.3 µM
same,TGI,RXF 393 renal,41 µM
same,TGI,LOX IMVI melanoma,34.3 µM
same,TGI,TK-10 renal,71.3 µM
same,TGI,LXFL 529 NSCLC,74.3 µM
same,TGI,UO-31 renal,45.6 µM
same,TGI,OVCAR-8 ovarian,63.5 µM
same,TGI,SN12C renal,61.7 µM
same,TGI,SF-539 CNS,40.5 µM
same,TGI,HL-60(TB) leukemia,45.8 µM
same,TGI,CCRF-CEM leukemia,73.9 µM
same,TGI,CAKI-1 renal,47.3 µM
same,TGI,IGROV1 ovarian,66.7 µM
same,TGI,HOP-92 NSCLC,24.2 µM
same,TGI,NCI-H522 lung,33.7 µM
same,TGI,K-562 leukemia,42.2 µM
same,TGI,786-0 renal,33.5 µM
same,TGI,UACC-257 melanoma,89.1 µM
same,TGI,XF 498 CNS,35.9 µM
same,TGI,KM20L2 colon,35.9 µM
same,TGI,SK-MEL-2 melanoma,44.4 µM
same,TGI,HT29 colon,46 µM
same,TGI,SNB-78 CNS,91.2 µM
same,TGI,RXF-631 renal,56 µM
same,TGI,RPMI-8226 leukemia,> 100 µM
same,TGI,HOP-18 NSCLC,41.7 µM
same,TGI,M19-MEL melanoma,79.7 µM
same,TGI,HCT-116 colon,47.9 µM
same,TGI,EKVX NSCLC,91.6 µM
same,TGI,COLO 205 colon,34.9 µM
same,TGI,M14 melanoma,51.5 µM
same,TGI,DLD-1 colon,> 100 µM

# Reference: PubChem BioAssay (NCI)
